Experimental data from patent US10865216B2, “Tricyclic Gyrase inhibitors” (MERCK SHARP & DOHME CORP., priority 2012, dated 2020).
Values after ≈ are worked out from the molar mass of the structure shown.

System: S. aureus ATCC 13709
Assay: MIC, S. aureus ATCC 13709
Format: cell-based
Conditions: S. aureus; Alamar Blue read after overnight incubation at 35° C.

SMILES	MIC Sa [µg/mL]
CNc1cc(F)cc2c1[nH]c1nc(Oc3ccc4oc(C)nc4c3)nc(N3CC4CCC(N)C4C3)c12 (centres unmarked) [Compound 4.336]	≤0.5
CNc1cc(F)cc2c1[nH]c1nc(Oc3cnc(C)nc3)nc(N3CC4CNC4C3)c12 (centres unmarked) [Compound 4.067]	≤0.5
CNc1cc(F)cc2c1[nH]c1nc(Oc3cncc(-c4cn[nH]c4)c3)nc(N3CC4C(N)C4C3)c12 (centres unmarked) [Compound 4.206]	≤0.5
CNc1cc(F)cc2c1[nH]c1nc(Oc3ccc4c(c3)C(=O)NCC4)nc(N3CC4C(N)C4C3)c12 (centres unmarked) [Compound 4.301]	≤0.5
CNc1cc(F)cc2c1[nH]c1nc(Oc3cnc(C)nc3)nc(N3CCC4(CC3)NC(=O)NC4=O)c12 [Compound 4.107]	>16
CCNC(=O)c1cncc(Oc2nc(NCC)c3c(n2)[nH]c2c(NC)cc(F)cc23)c1 [Compound 4.384]	1 (≈ 2.36 µM)
CNc1cc(F)cc2c1[nH]c1nc(Oc3cnc(C4CC4)nc3)nc(N3CC4CC(N)C4C3)c12 (centres unmarked) [Compound 4.240]	≤0.5
CNc1cc(F)cc2c1[nH]c1nc(Oc3cnc(C)nc3)nc(C3=CCNCC3)c12 [Compound 4.162]	8 (≈ 19.7 µM)
CNc1cccc2c1[nH]c1nc(Sc3cnc4ccc[n+]([O-])c4c3)nc(N3CCC4(CC4N)C3)c12 (centres unmarked) [Compound 1.39]	≤0.5
CNc1cc(F)cc2c1[nH]c1nc(Oc3cnc(C)nc3)nc(N3CC(N4CC(N)C4)C3)c12 [Compound 4.158]	≤0.5
CNc1ncc(Oc2nc(N3CC4CC(N)C4C3)c3c(n2)[nH]c2c(NC)cc(F)cc23)cn1 (centres unmarked) [Compound 4.221]	≤0.5
Cc1ncc(Oc2nc(N3CC(N)C4(CC4)C3)c3c(n2)[nH]c2c(N)cc(F)cc23)cn1 (centres unmarked) [Compound 2.9]	16 (≈ 38.1 µM)
CNc1cc(F)cc2c1[nH]c1nc(Oc3ccc(C#N)nc3)nc(N3CC4(CCC4N)C3)c12 (centres unmarked) [Compound 4.333]	≤0.5
CNc1cc(F)c(C)c2c1[nH]c1nc(Oc3cnc(C)nc3)nc(N3CC4(CCC4N)C3)c12 (centres unmarked) [Compound 6.20]	4 (≈ 8.92 µM)
CCc1cc(F)cc2c1[nH]c1nc(Oc3cnc(C)nc3)nc(N3CC4CC(N)C4C3)c12 (centres unmarked) [Compound 2.4]	≤0.5
CNc1cc(F)cc2c1[nH]c1nc(Oc3cncnc3)nc(N3CCC(C4(N)CC4)C3)c12 (centres unmarked) [Compound 4.017]	≤0.5
CNc1cc(F)cc2c1[nH]c1nc(Oc3cnc(C)nc3)nc(-c3cn[nH]c3)c12 [Compound 4.418]	≤0.5
CNc1cc(F)cc2c1[nH]c1nc(Oc3cncc(F)c3)nc(N3CCC4(CC4N)C3)c12 (centres unmarked) [Compound 4.062]	≤0.5
CNc1cc(F)cc2c1[nH]c1nc(Oc3cncnc3)nc(N3CC(N)C4(CC4)C3)c12 (centres unmarked) [Compound 4.002]	≤0.5
CNc1cc(F)cc2c1[nH]c1nc(Oc3cnc(C)nc3)nc(N3CCC(C4(N)CC4)C3)c12 (centres unmarked) [Compound 4.083]	≤0.5
CNc1cc(F)cc2c1[nH]c1nc(Oc3cnc(C4CC4)nc3)nc(N3CC4CCNC4C3)c12 (centres unmarked) [Compound 4.250]	≤0.5
CNc1cc(F)cc2c1[nH]c1nc(Oc3cnc(C)nc3)nc(N3CCC4(CNC4)C3)c12 [Compound 4.125]	≤0.5
CCc1cc(F)cc2c1[nH]c1nc(Oc3cncnc3)nc(N3CC4C(N)C4C3)c12 (centres unmarked) [Compound 2.2]	2 (≈ 4.93 µM)
CNc1cc(F)cc2c1[nH]c1nc(Oc3cncc(C#N)c3)nc(N3CC4C(N)C4C3)c12 (centres unmarked) [Compound 4.050]	≤0.5
CNc1cc(F)cc2c1[nH]c1nc(Oc3cnc(C)nc3)nc(N3CCC4(CCC4N)CC3)c12 (centres unmarked) [Compound 4.139]	≤0.5
CNc1cc(F)cc2c1[nH]c1nc(Oc3cnc(C)nc3)nc(N3CC4CC(N)CC4C3)c12 (centres unmarked) [Compound 4.104]	≤0.5
Nc1cccc2c1[nH]c1nc(Oc3cnc4cccnc4c3)nc(N3CC4C(N)C4C3)c12 (centres unmarked) [Compound 2.8]	16 (≈ 37.7 µM)
NC1C2CN(c3nc(Sc4cnc5ccc[n+]([O-])c5c4)nc4[nH]c5c(Cl)cccc5c34)CC12 (centres unmarked) [Compound 1.03]	32 (≈ 67.2 µM)

System: E. coli ATCC 25922
Assay: MIC, E. coli ATCC 25922
Format: cell-based
Conditions: E. coli; Alamar Blue read after overnight incubation at 35° C.

SMILES	MIC Ec [µg/mL]
CNc1cc(F)cc2c1[nH]c1nc(Oc3ccc4oc(C)nc4c3)nc(N3CC4CCC(N)C4C3)c12 (centres unmarked) [Compound 4.336]	1 (≈ 2.05 µM)
CNc1cc(F)cc2c1[nH]c1nc(Oc3cnc(C)nc3)nc(N3CC4CNC4C3)c12 (centres unmarked) [Compound 4.067]	≤0.5
CNc1cc(F)cc2c1[nH]c1nc(Oc3cncc(-c4cn[nH]c4)c3)nc(N3CC4C(N)C4C3)c12 (centres unmarked) [Compound 4.206]	4 (≈ 8.48 µM)
CNc1cc(F)cc2c1[nH]c1nc(Oc3ccc4c(c3)C(=O)NCC4)nc(N3CC4C(N)C4C3)c12 (centres unmarked) [Compound 4.301]	1 (≈ 2.11 µM)
CNc1cc(F)cc2c1[nH]c1nc(Oc3cnc(C)nc3)nc(N3CCC4(CC3)NC(=O)NC4=O)c12 [Compound 4.107]	>16
CCNC(=O)c1cncc(Oc2nc(NCC)c3c(n2)[nH]c2c(NC)cc(F)cc23)c1 [Compound 4.384]	>16
CNc1cc(F)cc2c1[nH]c1nc(Oc3cnc(C4CC4)nc3)nc(N3CC4CC(N)C4C3)c12 (centres unmarked) [Compound 4.240]	≤0.5
CNc1cc(F)cc2c1[nH]c1nc(Oc3cnc(C)nc3)nc(C3=CCNCC3)c12 [Compound 4.162]	>16
CNc1cccc2c1[nH]c1nc(Sc3cnc4ccc[n+]([O-])c4c3)nc(N3CCC4(CC4N)C3)c12 (centres unmarked) [Compound 1.39]	1 (≈ 2.06 µM)
CNc1cc(F)cc2c1[nH]c1nc(Oc3cnc(C)nc3)nc(N3CC(N4CC(N)C4)C3)c12 [Compound 4.158]	4 (≈ 8.9 µM)
CNc1ncc(Oc2nc(N3CC4CC(N)C4C3)c3c(n2)[nH]c2c(NC)cc(F)cc23)cn1 (centres unmarked) [Compound 4.221]	2 (≈ 4.45 µM)
Cc1ncc(Oc2nc(N3CC(N)C4(CC4)C3)c3c(n2)[nH]c2c(N)cc(F)cc23)cn1 (centres unmarked) [Compound 2.9]	16 (≈ 38.1 µM)
CNc1cc(F)cc2c1[nH]c1nc(Oc3ccc(C#N)nc3)nc(N3CC4(CCC4N)C3)c12 (centres unmarked) [Compound 4.333]	≤0.5
CNc1cc(F)c(C)c2c1[nH]c1nc(Oc3cnc(C)nc3)nc(N3CC4(CCC4N)C3)c12 (centres unmarked) [Compound 6.20]	>16
CCc1cc(F)cc2c1[nH]c1nc(Oc3cnc(C)nc3)nc(N3CC4CC(N)C4C3)c12 (centres unmarked) [Compound 2.4]	1 (≈ 2.31 µM)
CNc1cc(F)cc2c1[nH]c1nc(Oc3cncnc3)nc(N3CCC(C4(N)CC4)C3)c12 (centres unmarked) [Compound 4.017]	≤0.5
CNc1cc(F)cc2c1[nH]c1nc(Oc3cnc(C)nc3)nc(-c3cn[nH]c3)c12 [Compound 4.418]	1 (≈ 2.56 µM)
CNc1cc(F)cc2c1[nH]c1nc(Oc3cncc(F)c3)nc(N3CCC4(CC4N)C3)c12 (centres unmarked) [Compound 4.062]	≤0.5
CNc1cc(F)cc2c1[nH]c1nc(Oc3cncnc3)nc(N3CC(N)C4(CC4)C3)c12 (centres unmarked) [Compound 4.002]	≤0.5
CNc1cc(F)cc2c1[nH]c1nc(Oc3cnc(C)nc3)nc(N3CCC(C4(N)CC4)C3)c12 (centres unmarked) [Compound 4.083]	≤0.5
CNc1cc(F)cc2c1[nH]c1nc(Oc3cnc(C4CC4)nc3)nc(N3CC4CCNC4C3)c12 (centres unmarked) [Compound 4.250]	≤0.5
CNc1cc(F)cc2c1[nH]c1nc(Oc3cnc(C)nc3)nc(N3CCC4(CNC4)C3)c12 [Compound 4.125]	4 (≈ 9.21 µM)
CCc1cc(F)cc2c1[nH]c1nc(Oc3cncnc3)nc(N3CC4C(N)C4C3)c12 (centres unmarked) [Compound 2.2]	4 (≈ 9.87 µM)
CNc1cc(F)cc2c1[nH]c1nc(Oc3cncc(C#N)c3)nc(N3CC4C(N)C4C3)c12 (centres unmarked) [Compound 4.050]	≤0.5
CNc1cc(F)cc2c1[nH]c1nc(Oc3cnc(C)nc3)nc(N3CCC4(CCC4N)CC3)c12 (centres unmarked) [Compound 4.139]	≤0.5
CNc1cc(F)cc2c1[nH]c1nc(Oc3cnc(C)nc3)nc(N3CC4CC(N)CC4C3)c12 (centres unmarked) [Compound 4.104]	≤0.5
Nc1cccc2c1[nH]c1nc(Oc3cnc4cccnc4c3)nc(N3CC4C(N)C4C3)c12 (centres unmarked) [Compound 2.8]	>64
NC1C2CN(c3nc(Sc4cnc5ccc[n+]([O-])c5c4)nc4[nH]c5c(Cl)cccc5c34)CC12 (centres unmarked) [Compound 1.03]	>64
